Laboratory results taken from US8088819B2, “Derivatives of substituted 3-phenyl-1-(phenylthienyl)propan-1-ones and of 3-phenyl-1-(phenylfuranyl) propan-1-ones, preparation and use” (priority 2006, dated 2012).
pEC50: −log10 of the molar value.

What was measured:
[1] = test system: C57Bl6 mouse; test: Plasma cholesterol assays and lipoprotein distribution in the C57Bl6 mouse (compounds 4 and 7); type: in vivo; conditions: for lipid profile: C57Bl6 mice treated for 14 days; for plasma HDL-cholesterol levels / plasma total cholesterol levels / plasma HDL-cholesterol level (distribution of cholesterol in the plasma lipoprotein fractions): C57Bl6 mouse, 14 days; for plasma HDL-cholesterol levels / plasma total cholesterol levels: 50 mpk oral; for plasma HDL-cholesterol level (distribution of cholesterol in the plasma lipoprotein fractions): 50 mpk
Protocol: The effect of the compounds according to the invention was evaluated in vivo in the C57Bl6 mouse after 14 days of treatment by the oral route. At the end of the treatment, the distribution of cholesterol in the various plasma lipoprotein fractions was determined. This was compared with the profile obtained in the control animals (not treated with the compounds according to the invention). The effect of the compounds according to the invention was evaluated in the C57Bl6 mouse by measuring the plasma levels of total cholesterol and of HDL-cholesterol after 14 days of treatment by the oral route. These levels were compared with those obtained with control animals (not treated with the compounds according to the invention). The measured difference provides evidence of the antilipemic effect of the compounds according to the invention.
Female C57Bl6 mice were kept under a cycle of light and darkness of 12/12 hours at a constant temperature of 20±3° C. After acclimation for one week, the mice were weighed and put into groups of 6 animals selected so that the distribution of their body weight, of their plasma lipid levels and of total cholesterol determined for the first time before the experiment, is uniform. The test compounds were suspended in carboxymethylcellulose (Sigma C4888) and administered by intragastric force feeding, at a rate of once per day for 14 days at the chosen dose. The animals had free access to water and to food (standard diet). At the end of the experiment, the animals were anesthetized after fasting for 4 hours, a blood sample was taken using anticoagulant (EDTA), then the mice were weighed and euthanased. The plasma was separated by centrifugation at 3000 rev/min for 20 minutes, and the samples were stored at +4° C.
The plasma concentrations of total cholesterol were measured by enzyme assays (bioMérieux-Lyon-France) following the supplier's recommendations.
The low-density lipoproteins (VLDL and LDL) were precipitated with phosphotungstate. The precipitate was removed by centrifugation. The HDL-cholesterol present in the supernatant was quantified by enzyme assays (bioMérieux-Lyon-France) following the supplier's recommendations.
The various lipid fractions (VLDL, LDL, HDL) of the plasma were separated by gel filtration chromatography. The concentrations of cholesterol were then measured in each fraction by enzyme assays (bioMérieux-Lyon-France) following the supplier's recommendations.

[2] = biological target: T1, hPPARdelta (Homo sapiens, UniProt Q03181); test: PPAR activation: Gal4-hPPARδ chimera luciferase transactivation in COS-7 cells, Method 2; type: cell-based; conditions: COS-7, 24 h
T1 construct: expressed in transfected cells; host or cells: COS-7 (monkey kidney fibroblasts)
T1 sequence (Q03181 211-439 limits assumed): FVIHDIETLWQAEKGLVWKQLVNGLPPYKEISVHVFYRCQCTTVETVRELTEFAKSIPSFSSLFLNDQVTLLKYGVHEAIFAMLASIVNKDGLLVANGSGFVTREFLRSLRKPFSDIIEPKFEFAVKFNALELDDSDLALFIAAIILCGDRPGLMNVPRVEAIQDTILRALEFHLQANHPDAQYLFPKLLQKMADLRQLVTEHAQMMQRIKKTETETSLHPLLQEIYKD
How it was run: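 COS-7 cells were transfected with Gal4-PPAR LBD chimera plus Gal4(RE)_TkpGL3 luciferase reporter (1/10) and seeded serum-free for 4 h. Compounds at 10^−5 to 100 μm were applied for 24 h at 37° C in 1% lipid-free synthetic serum. Luciferase was read after lysis, and EC50 derived.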

Row | pEC50 ([2]; 1% Ultroser) | Emax ([2]; maximum percentage response relative to the reference GW501516, read-out: hPPARdelta % max) | SMILES | lipid profile [1] | plasma HDL-cholesterol levels [1] | plasma total cholesterol levels [1] | plasma HDL-cholesterol level (distribution of cholesterol in the plasma lipoprotein fractions) [1]
1 |  |  | CC(C)(Oc1ccc(CCC(O)c2ccc(-c3ccc(C(F)(F)F)cc3)s2)c(Cl)c1Cl)C(=O)O (stereo not shown) [Compound 4, 2-(2,3-dichloro-4-(3-hydroxy-3-(5-(4-(trifluoromethyl)phenyl)thien-2-yl)propyl)phenoxy)-2-methylpropanoic acid] | improve | significantly increased | significantly increased | increased
2 | 7.52 | 92% | CC(C)(Oc1ccc(CCC(OCc2ccccc2)c2ccc(-c3ccc(C(F)(F)F)cc3)s2)c(Cl)c1Cl)C(=O)O (stereo not shown) [Compound 7, 2-(4-(3-(benzyloxy)-3-(5-(4-(trifluoromethyl)phenyl)thien-2-yl)propyl)-2,3-dichlorophenoxy)-2-methylpropanoic acid] | improve | nonsignificant increase | significantly increased | increased
